From patent publication US20220056040A1, “NOVEL 3-(2-BROMO-4-ALKYNYL-6-ALKOXYPHENYL)-3-PYRROLIN-2-ONES AND THEIR USE AS HERBICIDES” (Bayer Aktiengesellschaft, priority 2019, published 2022)

Assays:
Type in all cases: in vivo
[1] = system: Alopecurus myosuroides; experiment: Pre-emergence herbicidal effect; settings: 80 g/ha, visual score after 3 weeks vs untreated controls
Text: (§1) Seeds of monocotyledonous and dicotyledonous weed plants and crop plants are laid out in sandy loam soil in wood-fiber pots and covered with soil. The compounds of the invention, formulated in the form of wettable powders (WP) or as emulsion concentrates (EC), are then applied to the surface of the covering soil as aqueous suspension or emulsion at a water application rate equating to 600 to 800 L/ha with addition of 0.2% wetting agent. After the treatment, the pots are placed in a greenhouse and kept under good growth conditions for the trial plants. The damage to the test plants is scored visually after a test period of 3 weeks by comparison with untreated controls (herbicidal activity in percent (%): 100% activity=the plants have died, 0% activity=like control plants).

[2] = system: Avena fatua; experiment: Pre-emergence herbicidal effect; settings: 80 g/ha, visual score after 3 weeks vs untreated controls
Text: as §1

[3] = system: Digitaria sanguinalis; experiment: Pre-emergence herbicidal effect; settings: 80 g/ha, visual score after 3 weeks vs untreated controls
Text: as §1

[4] = system: Echinochloa crus-galli; experiment: Pre-emergence herbicidal effect; settings: 80 g/ha, visual score after 3 weeks vs untreated controls
Text: as §1

[5] = system: Lolium rigidum; experiment: Pre-emergence herbicidal effect; settings: 80 g/ha, visual score after 3 weeks vs untreated controls
Text: as §1

[6] = system: Setaria viridis; experiment: Pre-emergence herbicidal effect; settings: 80 g/ha, visual score after 3 weeks vs untreated controls
Text: as §1

[7] = system: Alopecurus myosuroides; experiment: Post-emergence herbicidal effect; settings: 80 g/ha, post-emergence at one-leaf stage, visual score after about 3 weeks
Protocol: (§2) Seeds of monocotyledonous and dicotyledonous weed and crop plants are laid out in sandyloam soil in wood-fiber pots, covered with soil and cultivated in a greenhouse under good growth conditions. 2 to 3 weeks after sowing, the test plants are treated at the one-leaf stage. The compounds of the invention, formulated in the form of wettable powders (WP) or as emulsion concentrates (EC), are then sprayed onto the green parts of the plants as aqueous suspension or emulsion at a water application rate equating to 600 to 800 l/ha with addition of 0.2% wetting agent. After the test plants have been left to stand in the greenhouse under optimal growth conditions for about 3 weeks, the action of the preparations is assessed visually in comparison to untreated controls (herbicidal action in percent (%): 100% activity=the plants have died, 0% activity=like control plants).

[8] = system: Digitaria sanguinalis; experiment: Post-emergence herbicidal effect; settings: 80 g/ha, post-emergence at one-leaf stage, visual score after about 3 weeks
Protocol: as §2

[9] = system: Echinochloa crus-galli; experiment: Post-emergence herbicidal effect; settings: 80 g/ha, post-emergence at one-leaf stage, visual score after about 3 weeks
Protocol: as §2

[10] = system: Hordeum murinum; experiment: Post-emergence herbicidal effect; settings: 80 g/ha, post-emergence at one-leaf stage, visual score after about 3 weeks
Protocol: as §2

[11] = system: Lolium rigidum; experiment: Post-emergence herbicidal effect; settings: 80 g/ha, post-emergence at one-leaf stage, visual score after about 3 weeks
Protocol: as §2

[12] = system: Setaria viridis; experiment: Post-emergence herbicidal effect; settings: 80 g/ha, post-emergence at one-leaf stage, visual score after about 3 weeks
Protocol: as §2

| SMILES | Pre-emergence action ALOMY (herbicidal activity in percent) [1] | Pre-emergence action AVEFA (herbicidal activity in percent) [2] | Pre-emergence action DIGSA (herbicidal activity in percent) [3] | Pre-emergence action ECHCG (herbicidal activity in percent) [4] | Pre-emergence action LOLRI (herbicidal activity in percent) [5] | Pre-emergence action SETVI (herbicidal activity in percent) [6] | Post-emergence action against ALOMY (herbicidal action in percent) [7] | Post-emergence action against DIGSA (herbicidal action in percent) [8] | Post-emergence action against ECHCG (herbicidal action in percent) [9] | Post-emergence action against HORMU (herbicidal action in percent) [10] | Post-emergence action against LOLRI (herbicidal action in percent) [11] | Post-emergence action against SETVI (herbicidal action in percent) [12] |
| --- | --- | --- | --- | --- | --- | --- | --- | --- | --- | --- | --- | --- |
| CC#Cc1cc(Br)c(C2=C(OC(=O)OCC)C3(CCC(OCCOC)CC3)NC2=O)c(OC)c1 (centres unmarked) [Example 1.3.07] | 100% | 100% | 100% | 100% | 100% | 100% | – | – | – | – | – | – |
| CC#Cc1cc(Br)c(C2=C(O)C3(CCC4(CC3)OCCO4)NC2=O)c(OC)c1 [Example 1.2.03] | 100% | 100% | 100% | 100% | 100% | 100% | 90% | 100% | 100% | 100% | 100% | 100% |
| C=CCOC1CCC2(CC1)NC(=O)C(c1c(Br)cc(C#CC)cc1OC)=C2OC(=O)C(C)C (centres unmarked) [Example 1.3.04] | 90% | 90% | 100% | 100% | 100% | 100% | 90% | 100% | 100% | 100% | 100% | 100% |
| C=CCOC1CCC2(CC1)NC(=O)C(c1c(Br)cc(C#CC)cc1OC)=C2OC(=O)OCC (centres unmarked) [Example 1.3.03] | 100% | 90% | 100% | 100% | 100% | 100% | 100% | 100% | 100% | – | 100% | 100% |
| CC#Cc1cc(Br)c(C2=C(OC(=O)OC)C3(CCC(OC(C)C)CC3)NC2=O)c(OC)c1 (centres unmarked) [Example 1.3.11] | 100% | 90% | 100% | 100% | 100% | 100% | – | – | – | – | – | – |
| CC#Cc1cc(Br)c(C2=C(O)C3(CCC(OC(C)C)CC3)NC2=O)c(OC)c1 (centres unmarked) [Example 1.3.09] | 100% | 100% | 100% | 90% | 100% | 100% | – | – | – | – | – | – |
| CC#Cc1cc(Br)c(C2=C(OC(C)=O)C3(CCC(OCCOC)CC3)NC2=O)c(OC)c1 (centres unmarked) [Example 1.3.08] | 100% | 90% | 100% | 100% | 100% | 100% | – | – | – | – | – | – |
